Assay results: ChEMBL document CHEMBL1240403, “Penicillin-binding protein gene alterations in Streptococcus uberis isolates presenting decreased susceptibility to penicillin” (2010)
Values after ≈ are worked out from the molar mass of the structure shown.

Columns and labels:
Streptococcus uberis [1] = assay: Antimicrobial activity against Streptococcus uberis isolate ALP8092 harboring PAP1A G386R and PBP2X E381K/Q554E mutation assessed as inhibition of visible growth after 24 hrs by broth macrodilution method; type: functional; conditions: isolate ALP8092, 24 h
Streptococcus uberis [2] = assay: Antimicrobial activity against Streptococcus uberis ATCC 8749 harboring PAP1A A227T/G386R, PBP2B N366I/T402I and PBP2X E381K/D524A/Q554E mutation after 28 passages assessed as inhibition of visible growth broth macrodilution method; type: functional
Streptococcus uberis [3] = assay: Antimicrobial activity against Streptococcus uberis ATCC 9529 harboring PBP2B N366I/T402I and PBP2X E381K/Q554E mutation assessed as inhibition of visible growth by broth macrodilution method; type: functional
Streptococcus uberis [4] = assay: Antimicrobial activity against Streptococcus uberis isolate 1.11 harboring PAP1A G386R, PBP2B T593A and PBP2X E381K/Q554E mutation assessed as inhibition of visible growth after 24 hrs by broth macrodilution method; conditions: isolate 1.11, 24 h
Streptococcus uberis [5] = assay: Antimicrobial activity against Streptococcus uberis isolate 20592 harboring and PBP2X E381K/Q554E mutation assessed as inhibition of visible growth after 24 hrs by broth macrodilution method; type: functional; conditions: isolate 20592, 24 h
Streptococcus uberis [6] = assay: Antimicrobial activity against Streptococcus uberis ATCC 19436 assessed as inhibition of visible growth after 24 hrs by broth macrodilution method; type: functional; conditions: ATCC 19436, 24 h
Streptococcus uberis [7] = assay: Antimicrobial activity against Streptococcus uberis isolate 20618 harboring PAP1A G386R and PBP2X E381K/Q554E mutation assessed as inhibition of visible growth after 24 hrs by broth macrodilution method; type: functional; conditions: isolate 20618, 24 h
Streptococcus uberis [8] = assay: Antimicrobial activity against Streptococcus uberis ATCC 8749 harboring PAP1A R273H, PBP2B N366I/T402I and PBP2X E381K/Q554E mutation after 16 passages assessed as inhibition of visible growth by broth macrodilution method; type: functional
Streptococcus uberis [9] = assay: Antimicrobial activity against Streptococcus uberis ATCC 9529 harboring PAP1A R273P, PBP2B N366I/T402I and PBP2X E381K/Q554E mutation after 11 passages assessed as inhibition of visible growth by broth macrodilution method; type: functional
Streptococcus uberis [10] = assay: Antimicrobial activity against Streptococcus uberis ATCC 8749 harboring PAP1A A227T/G386R, PBP2B N366I/T402I and PBP2X E381K/D524A/Q554E mutation after 37 passages assessed as inhibition of visible growth broth macrodilution method; type: functional
Streptococcus uberis [11] = assay: Antimicrobial activity against Streptococcus uberis isolate 20568 harboring PAP1A G386R, PBP2B N366I/T402I/V570A/P575S and PBP2X E381K/Q554E mutation assessed as inhibition of visible growth after 24 hrs by broth macrodilution method; type: functional; conditions: isolate 20568, 24 h
Streptococcus uberis [12] = assay: Antimicrobial activity against Streptococcus uberis ATCC 9529 harboring PAP1A R273P, PBP2B N366I/T402I and PBP2X E381K/Q554E mutation after 28 passages assessed as inhibition of visible growth by broth macrodilution method; type: functional
Streptococcus uberis [13] = assay: Antimicrobial activity against Streptococcus uberis isolate ALP 8144 harboring PBP2X E381K/Q554E mutation assessed as inhibition of visible growth after 24 hrs by broth macrodilution method; type: functional; conditions: isolate ALP 8144, 24 h
Streptococcus uberis [14] = assay: Antimicrobial activity against Streptococcus uberis ATCC 8749 harboring PBP2B N366I/T402I/V570A/P575S and PBP2X A492E mutation assessed as inhibition of visible growth by broth macrodilution method; type: functional
Streptococcus uberis [15] = assay: Antimicrobial activity against Streptococcus uberis ATCC 19436 harboring PAP1A A227T/G386R, PBP2B N366I/T402I and PBP2X E381K/D524A/Q554E mutation after 30 passages assessed as inhibition of visible growth by broth macrodilution method; type: functional
Streptococcus uberis [16] = assay: Antimicrobial activity against Streptococcus uberis ATCC 9529 harboring PAP1A A227T/G386R, PBP2B N366I/T402I and PBP2X E381K/D524A/Q554E mutation after 39 passages assessed as inhibition of visible growth by broth macrodilution method; type: functional
Streptococcus uberis [17] = assay: Antimicrobial activity against Streptococcus uberis ATCC 19436 harboring PAP1A A227T, PBP2B N366I/T402I and PBP2X E381K/Q554E mutation after 15 passages assessed as inhibition of visible growth by broth macrodilution method; type: functional
Streptococcus uberis [18] = assay: Antimicrobial activity against Streptococcus uberis isolate BL246 harboring PBP2B N366I/T402I and PBP2X E381K/Q554E mutation assessed as inhibition of visible growth after 24 hrs by broth macrodilution method; type: functional; conditions: isolate BL246, 24 h
Streptococcus uberis [19] = assay: Antimicrobial activity against Streptococcus uberis ATCC 19436 harboring PAP1A A227T, PBP2B N366I/T402I and PBP2X E381K/D524A/Q554E mutation after 18 passages assessed as inhibition of visible growth by broth macrodilution method; type: functional

CC1(C)S[C@@H]2[C@H](NC(=O)Cc3ccccc3)C(=O)N2[C@H]1C(=O)O [PENICILLIN G]
MIC (Streptococcus uberis [1]): 0.25 µg/mL (≈ 0.748 µM) | MIC (Streptococcus uberis [2]): 1 µg/mL (≈ 2.99 µM) | MIC (Streptococcus uberis [3]): 0.128 µg/mL (≈ 0.383 µM) | MIC (Streptococcus uberis [4]): 0.25 µg/mL (≈ 0.748 µM) | MIC (Streptococcus uberis [5]): 0.5 µg/mL (≈ 1.5 µM) | MIC (Streptococcus uberis [6]): 0.032 µg/mL (≈ 0.0957 µM) | MIC (Streptococcus uberis [7]): 0.25 µg/mL (≈ 0.748 µM) | MIC (Streptococcus uberis [8]): 0.5 µg/mL (≈ 1.5 µM) | MIC (Streptococcus uberis [9]): 0.5 µg/mL (≈ 1.5 µM) | MIC (Streptococcus uberis [10]): 2 µg/mL (≈ 5.98 µM) | MIC (Streptococcus uberis [11]): 0.5 µg/mL (≈ 1.5 µM) | MIC (Streptococcus uberis [12]): 1 µg/mL (≈ 2.99 µM) | MIC (Streptococcus uberis [13]): 0.25 µg/mL (≈ 0.748 µM) | MIC (Streptococcus uberis [14]): 0.016 µg/mL (≈ 0.0478 µM) | MIC (Streptococcus uberis [15]): 2 µg/mL (≈ 5.98 µM) | MIC (Streptococcus uberis [16]): 2 µg/mL (≈ 5.98 µM) | MIC (Streptococcus uberis [17]): 0.5 µg/mL (≈ 1.5 µM) | MIC (Streptococcus uberis [18]): 0.25 µg/mL (≈ 0.748 µM) | MIC (Streptococcus uberis [19]): 1 µg/mL (≈ 2.99 µM)
